Assay results as given in patent publication US11851459B2, “Methods and uses of modulators of anaphase promoting complex (APC) activity for treating cancer” (University of Saskatchewan, priority 2018, dated 2023).

Tests used:
[1] = system: wild type (WT) cells; assay: Growth of WT yeast expressing peptides, spot dilution; assay type: cell-based; details: peptides expressed in WT yeast
Description: A. Yeast 2-hybrid (Y2H) cells expressing the APC subunit bait and the galactose inducible Apc10 peptide prey grown on glucose or galactose. Cells co-expressing the Apc5 or Apc10-bait and Apc10 aptamer-prey vectors were spotted onto the appropriate media, in the presence or absence of galactose (the aptamers are Gal inducible), to confirm Y2H interactions. Growth on trp^− his^− media ensures both plasmids are maintained. A Y2H interaction will drive expression of the ADE2 gene, allowing growth on ade^− media. B. Aptamers that bind Apc10 can suppress APC mutant phenotypes. Spot dilutions of apc10Δ cells expressing an empty vector control or the one of 6 Apc10 aptamers tested. Log phase cells were 10-fold serially diluted and spotted onto plates containing either 2% glucose or 2% galactose. The plates were then incubated at 30° C. (permissive temperature) and 34° C. (restrictive stress). C. Peptides identified as binding to the yeast Apc10 APC subunit using the Y2H screen increase growth of wildtype (WT) cells. A series of APC binding peptides were transformed into WT yeast cells, spot diluted, and grown at 30° C. on media supplemented with the normal carbon source (2% glucose). […]
The six peptide expressing vectors were transformed into apc10Δ cells and assessed for temperature sensitive growth. […]

[2] = system: wild type (WT) cells; assay: C43-4 mutant peptides, spot dilution under temperature and UV stress, WT cells; assay type: cell-based, yeast; details: low level expression on glucose
Experimental: The cells were exposed to 5 sec of UV from a UV box prior to incubation. The plus signs define growth compared to the empty vector control.
Residues 2, 7, 8, 10, 12 and 14 of peptide C43-4 are conserved with Htz1. All of these residues were mutated to alanine (FIG. 10). Peptides that contained mutations designed to determine which amino acids were required for function were generated. These mutant peptides were grown in wild type cells and in cells that had APC10 mutated, under temperature and UV stress conditions (FIGS. 10-12).
These cells were spot diluted on Trp^− plates and grown at the temperatures shown and/or exposed to ultraviolet (UV) irradiation (FIGS. 10-12). At low level expression on glucose, some of the mutations caused stress dependent phenotypes.
• 1. Cells were cultured overnight in Trp^− 2% glucose media • 2. The growth of the cells was determined by measuring the optical density (OD) of the cells at 600 nm (OD600) • 3. Cells were diluted to OD600 of 1 with fresh culture media • 4. 100 ul of each culture was pipetted into a well of a 96 well plate • 5. 10 ul of the each starting culture was pipetted into 90 ul of water in 4 additional wells to make a 10-fold serial spot dilution • 6. 5 ul from each serial dilution was spotted onto plates containing standard growth media with either 2% glucose or 2% galactose using a multi-pipettor • 7. The plates were exposed to UV • 8. […]

For NGSSHNDLRVRRLTLISRLC [C43-4], the “growth / viability of WT cells” value [1] was “increases the viability of WT cells” and the “stress resistance (growth compared to empty vector)” value [2] was “increased stress resistance”.
